{
  "source": "patent US20200360391A1",
  "about": "“Medicinal Composition for Treating Intractable Heart Disease” (Osaka University, priority 2016, published 2020)",
  "key": {"[1]": {"test_system": "spontaneous dilated cardiomyopathy J2N-k baby hamsters", "assay": "J2N-k baby hamsters (Test 4): administration alone or in combination, echocardiography, body weight", "assay_type": "in vivo, hamster", "details": "for % FS / EF (%) / value of change in E.F. compared with E.F. at 0 W / value of change in F.S. compared with F.S. at 0 W: Test 4, dose O 0.17, C 3.3, E 15, orally twice daily, mean ± S.D.", "description": "δ-Glycan-deficient spontaneous dilated cardiomyopathy (J2N-k) male hamsters (Japan SLC, Inc.) were delivered at 4 weeks of age. After a 1-week quarantine/acclimation, echocardiography was performed. The hamsters were grouped by stratified random assignment based on the EF values and the body weights so that each administration group was equalized.\nEach test substance was individually administered twice daily (at an interval of 8 hours or more) by oral gavage, and echocardiography was performed 4 and 8 weeks after the start of administration (before dissection). Differences from the value before the start of administration (at the time of grouping) (amount of change: A) in each group were examined, and the cardiac function (EF value, FS %, etc.) was compared with that in the vehicle group (Group 1).\nThe doses were set according to the dose-setting basis in Test 3, and similarly orally administered twice daily. Effects of administration of combinations of two or three of carvedilol, which is a β-blocker widely used clinically, and ozagrel and/or pirfenidone were examined."}, "[2]": {"details": "cited from earlier work"}, "[3]": {"test_system": "spontaneous dilated cardiomyopathy (J2N-k) hamster model", "assay": "Spontaneous dilated cardiomyopathy (J2N-k) hamster model, 8-week administration from 20 weeks of age (Tests 1-3): echocardiography, body weight", "details": "for LVIDs 8 W: hydrochloride hydrate", "in_short": "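Male J2N-k δ-glycan-deficient hamsters (delivered at 18 weeks; 2-week acclimation) were dosed by oral gavage twice daily for 8 weeks in 0.5% CMC-Na (G in distilled water; 5 mL/kg) at human-equivalent doses, e.g. cilostazol 1.7 mg/kg. Camostat PLGA preparation was given 10 mg/kg s.c. every 4 weeks. Echocardiographic EF/FS changes from baseline were assessed at 4 and 8 weeks versus vehicle.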"}, "rats [4]": {"test_system": "rats", "details": "subcutaneous administration in rats; cited from earlier work"}, "rats [5]": {"test_system": "rats", "details": "cited from earlier work"}, "[6]": {"test_system": "rat coronary artery complete ischemia model", "assay": "Model of ischemia (MI) by rat coronary artery complete ligation (Tests 1 and 2): echocardiography, body weight", "details": "for value of change in E.F. compared with E.F. on Day 1 / value of change in F.S. compared with F.S. on Day 1: B-MS 100, C-MS 50, F-MS 30 mg/kg s.c. single injection"}, "[7]": {"details": "MI Test 1, NOAEL doses, 7 Day, mean ± S.D."}, "[8]": {"details": "MI Test 1, NOAEL doses, 14 Day, mean ± S.D."}, "[9]": {"details": "MI Test 1, NOAEL doses, 29 Day, mean ± S.D."}, "[10]": {"details": "MI Test 2, 14 Day, B 150, G 5, I 30, C 10 mg/kg p.o. b.i.d., mean ± S.D."}, "[11]": {"details": "MI Test 2, 29 Day, B 150, G 5, I 30, C 10 mg/kg p.o. b.i.d., mean ± S.D."}},
  "note": "Entries after “also recorded” stand apart in the source; their conditions may differ. Structures can show the parent of a compound that is named as a salt.",
  "data": [
    {"smiles": "O=C(O)/C=C/c1ccc(Cn2ccnc2)cc1", "note": "[Compound C, Ozagrel hydrochloride hydrate]", "values": [
      {"measurement": "Action on decrease in left ventricular systolic function", "setting": "[1]; Test 4, clinical doses p.o. b.i.d., 8 weeks, hydrochloride hydrate", "value": "significant suppression action on a decrease in left ventricular systolic function; also recorded: action of significantly suppressing a decrease in left ventricular systolic function"},
      {"measurement": "Body weight 3 W", "setting": "[1]; Test 4, p.o. b.i.d., clinical dose", "value": 85.4, "unit": "g"},
      {"measurement": "% FS", "setting": "[1]; 0 W (start of administration)", "value": "39.1 ± 2.7", "unit": "%"},
      {"measurement": "EF (%)", "setting": "[1]; 0 W (start of administration)", "value": "77.3 ± 2.9", "unit": "%"},
      {"measurement": "% FS", "setting": "[1]; 4 W", "value": "34.9 ± 1.5", "unit": "%"},
      {"measurement": "EF (%)", "setting": "[1]; 4 W", "value": "72.3 ± 2.0", "unit": "%"},
      {"measurement": "value of change in E.F. compared with E.F. at 0 W", "setting": "[1]; 4 W", "value": "<−5.0 ± 1.4> %"},
      {"measurement": "value of change in F.S. compared with F.S. at 0 W", "setting": "[1]; 4 W", "value": "<−4.2 ± 1.4> %"},
      {"measurement": "% FS", "setting": "[1]; 8 W", "value": "30.7 ± 2.0", "unit": "%"},
      {"measurement": "EF (%)", "setting": "[1]; 8 W", "value": "66.6 ± 2.8", "unit": "%"},
      {"measurement": "value of change in E.F. compared with E.F. at 0 W", "setting": "[1]; 8 W", "value": "<−10.7 ± 2.0> %"},
      {"measurement": "value of change in F.S. compared with F.S. at 0 W", "setting": "[1]; 8 W", "value": "<−8.4 ± 1.6> %"},
      {"measurement": "Safety at the daily amount", "setting": "[2]; camostat 600 mg daily, ozagrel 400 mg daily", "value": "no safety problems except for slightly prolonged bleeding time"},
      {"measurement": "Abdominal / stomach / gastric discomfort cases", "setting": "[2]; human, in vivo", "value": 0.1, "unit": "%"},
      {"measurement": "Bleeding tendency cases", "setting": "[2]; human, in vivo", "value": 0.1, "unit": "%"},
      {"measurement": "Elevated AST (GOT) and/or ALT (GPT) / liver enzyme cases", "setting": "[2]; human, in vivo", "value": 0.3, "unit": "%"},
      {"measurement": "Itching / pruritus cases", "setting": "[2]; human, in vivo", "value": 0.2, "unit": "%"},
      {"measurement": "Nausea cases (cilostazol: nausea/vomiting)", "setting": "[2]; human, in vivo", "value": 0.3, "unit": "%"},
      {"measurement": "Rash cases", "setting": "[2]; human, in vivo", "value": 0.2, "unit": "%"},
      {"measurement": "Cases with side effects (including laboratory test value abnormality)", "setting": "[2]; share of cases evaluated for safety", "value": 2.0, "unit": "%"},
      {"measurement": "LVIDd 4 W", "setting": "[3]; Test 1, p.o. b.i.d.", "value": 7.1, "unit": "mm"},
      {"measurement": "LVIDd 8 W", "setting": "[3]; Test 1, p.o. b.i.d.", "value": 7.4, "unit": "mm"},
      {"measurement": "LVIDs 4 W", "setting": "[3]; Test 1, p.o. b.i.d.", "value": 5.9, "unit": "mm"},
      {"measurement": "LVIDs 8 W", "setting": "[3]; Test 1, p.o. b.i.d.", "value": 6.1, "unit": "mm"},
      {"measurement": "LVIDs 8 W", "setting": "[3]; Test 1, p.o. b.i.d., listed as ozagrel", "value": "significantly lower"},
      {"measurement": "Cardiac function (EF, FS %) actual measured value or change rate compared with control, 4 W value", "setting": "[3]; Test 3, clinical dose", "value": "significant cardiac function improvement effect"},
      {"measurement": "Cardiac function improvement effect", "setting": "[3]; Test 3, clinical dose, summary", "value": "cardiac function improvement effect was observed"},
      {"measurement": "Minimal effective dose (screening 2)", "setting": "[3]; mg/kg twice per day, oral preparation", "value": 3.3, "unit": "mg/kg"},
      {"measurement": "LD50", "setting": "rats [4]", "value": 2049, "unit": "mg/kg"},
      {"measurement": "No-observed-effect level", "setting": "rats [5]; rats, 3 months", "value": 150, "unit": "mg/kg"},
      {"measurement": "Dose at which toxic findings were observed", "setting": "rats [5]; repeated oral administration in rats, duration per compound", "value": "≥ 500", "unit": "mg/kg"},
      {"measurement": "Action on left ventricular systolic function", "setting": "[6]; MI Test 1, 28-day repeated oral administration b.i.d., NOAEL-based doses", "value": "suppression action on the deterioration of left ventricular systolic function"},
      {"measurement": "Body weight", "setting": "[6]; MI Test 1, NOAEL doses, 1 Day (grouping), mean ± S.D.", "value": "234.8 ± 8.3", "unit": "g"},
      {"measurement": "% FS: value of change compared with the value on Day 1", "setting": "[6]; [7]", "value": 0, "unit": "%"},
      {"measurement": "Body weight", "setting": "[6]; [7]", "value": "240.0 ± 9.3", "unit": "g"},
      {"measurement": "EF: value of change compared with the value on Day 1", "setting": "[6]; [7]", "value": -1, "unit": "%"},
      {"measurement": "% FS: value of change compared with the value on Day 1", "setting": "[6]; [8]", "value": -1, "unit": "%"},
      {"measurement": "Body weight", "setting": "[6]; [8]", "value": "261.2 ± 10.8", "unit": "g"},
      {"measurement": "EF: value of change compared with the value on Day 1", "setting": "[6]; [8]", "value": -2, "unit": "%"},
      {"measurement": "Body weight", "setting": "[6]; MI Test 1, NOAEL doses, 21 Day, mean ± S.D.", "value": "278.9 ± 12.5", "unit": "g"},
      {"measurement": "% FS: value of change compared with the value on Day 1", "setting": "[6]; [9]", "value": -3, "unit": "%"},
      {"measurement": "Body weight", "setting": "[6]; [9]", "value": "299.8 ± 13.9", "unit": "g"},
      {"measurement": "EF: value of change compared with the value on Day 1", "setting": "[6]; [9]", "value": -5, "unit": "%"},
      {"measurement": "EF actual measured value and/or amount of change compared with control", "setting": "[6]; MI Test 2, Day 14 and Day 29", "value": "significantly higher"},
      {"measurement": "Values of cardiac function (EF, FS %) compared with control", "setting": "[6]; MI Test 2, oral b.i.d. 4 weeks or single subcutaneous administration", "value": "significantly higher"},
      {"measurement": "Body weight", "setting": "[6]; MI Test 2, 1 Day, B 150, G 5, I 30, C 10 mg/kg p.o. b.i.d., B MS 100, C MS 50, I MS 30 mg/kg s.c. single injection, mean", "value": 240.1, "unit": "g"},
      {"measurement": "Body weight", "setting": "[6]; MI Test 2, 7 Day, B 150, G 5, I 30, C 10 mg/kg p.o. b.i.d., B MS 100, C MS 50, I MS 30 mg/kg s.c. single injection, mean", "value": 245.7, "unit": "g"},
      {"measurement": "Body weight", "setting": "[6]; MI Test 2, 14 Day, B 150, G 5, I 30, C 10 mg/kg p.o. b.i.d., B MS 100, C MS 50, I MS 30 mg/kg s.c. single injection, mean", "value": 273.3, "unit": "g"},
      {"measurement": "value of change in E.F. compared with E.F. on Day 1", "setting": "[6]; [10]", "value": "<−4.9 ± 2.3> %"},
      {"measurement": "value of change in F.S. compared with F.S. on Day 1", "setting": "[6]; [10]", "value": "<−2.7 ± 1.3> %"},
      {"measurement": "Body weight", "setting": "[6]; MI Test 2, 21 Day, B 150, G 5, I 30, C 10 mg/kg p.o. b.i.d., B MS 100, C MS 50, I MS 30 mg/kg s.c. single injection, mean", "value": 292.8, "unit": "g"},
      {"measurement": "Body weight", "setting": "[6]; MI Test 2, 29 Day, B 150, G 5, I 30, C 10 mg/kg p.o. b.i.d., B MS 100, C MS 50, I MS 30 mg/kg s.c. single injection, mean", "value": 310.4, "unit": "g"},
      {"measurement": "value of change in E.F. compared with E.F. on Day 1", "setting": "[6]; [11]", "value": "<−10.0 ± 3.9> %"},
      {"measurement": "value of change in F.S. compared with F.S. on Day 1", "setting": "[6]; [11]", "value": "<−5.3 ± 2.1> %"}
    ]}
  ]
}
